In US12336986B2, “Treatment and prevention of ocular neurodegenerative disorder” (The Jackson Laboratory, priority 2015, dated 2025):
“Also recorded” adds a separate entry of the source.

Legend:
RGCs = conditions: U.S. Pat. No. 7,776,326; injected intravitreally; cited from earlier work
DBA/2J (D2) mice [1] = experiment: Clinical phenotyping: intraocular pressure (IOP) and iris disease in D2 mice; type: in vivo, mouse
Method: IOP elevation in D2 mice is subsequent to a pigment dispersing iris disease. In all experiments, the progression of the iris disease and intraocular pressure in mutant or drug-treated mice was compared to control D2 mice as previously described (John et al., Invest Ophthalmol Vis Sci 39, 951-962, 1998). In each experiment, iris disease and intraocular pressure were assessed.
Iris disease was assessed at two-month intervals starting at 6 months of age until experiment completion.
Intraocular pressure was measured at 45-day intervals beginning at 8.5-9 month until experiment completion.

[2] = tested on: dendritic mitochondria of D2 RGCs; experiment: Electron microscopy of RGC dendritic mitochondria (cristae); type: in vivo, mouse; conditions: D2 mice, NAM 550 mg/kg/day
Method: Mice were euthanized, eyes enucleated, and then fixed ON in Smith-Ruda (0.8% PFA and 1.2% gluteraldehyde in 0.1 M phosphate buffer). The cornea and lens were dissected off and the remaining posterior eye-cup (containing the retina and ONH) were post-fixed in 2% aqueous osmium tetroxide and dehydrated in ethyl alcohol. Samples were then infiltrated and flat-mounted in Embed 812/Araldite resin (Electron Microscopy Sciences) to allow en face sections. Blocks were polymerized at 60° C. for 48 hrs and 90 nm microtome sections were cut (Leica UC6, Leica) onto 300 mesh copper grids. Grids were stained with 1% aqueous uranyl acetate/Reynold's lead citrate and were viewed on a JEOL JEM 1230 TEM. Images were collected on an AMT 2K camera.

dorsal root ganglion = conditions: U.S. Pat. No. 7,776,326; cited from earlier work
D2 retinas [3] = experiment: Metabolic phenotyping of retina: total NAD, NAD(t) (NAD+/NADH); type: in vivo, mouse
Method: We performed additional metabolic profiling of neural retinas from 4-, 9-, and 12-months old D2 and D2-Gpnmb^+ eyes. Metabolic profiling was performed using targeted assays following the manufacturers recommendations. The following metabolites were profiled: NAD+/NADH (i.e. total NAD, NAD(t)), GSH/GSSG (i.e. total glutathione, glutathione(t)), and pyruvate.
For GSH/GSSO and NAD^+/NADH quantification retinas were dissociated (as above) and compounds measured following the manufacturer's instructions (GSH/GSSG, Cayman Chemical; NAD^+/NADH, Biovision). Results were calculated according to the standard curve generated by using standards from the kits. Final metabolite concentrations for each samples were normalized to total protein concentration measured by Bradford assay.

γH2AX = experiment: DNA damage (γH2AX staining) in D2 retinas; type: in vivo, mouse; conditions: D2 mice, early glaucoma, NAM 550 mg/kg/day
Method: (§1) For immunofluorescence staining, mice were euthanized by cervical dislocation, their eyes enucleated and placed in 4% PFA ON. Retinas were dissected and flat-mounted onto slides, permeabilized with 0.1% Triton-X for 15 mins, blocked with 2% BSA in PBS and stained ON at RT in primary antibody (see below for list of antibodies).
(§2) After primary antibody incubation, retinas were washed 5 times in PBS, stained for 4 hrs at RT with secondary antibody. Slides were then washed a further 5 times with PBS, stained with DAPI for 15 mins, mounted with fluoromount, coverslipped and sealed with nail-polish.
(§3) For retinal sections, eyes were cryoprotected in 30% sucrose ON, frozen in OCT and cryosectioned at 18 μm. Slides were warmed to room temperature and the procedure above was followed. Retinas were imaged on a Zeiss AxioObserver for low resolution counts. Retinal sections were imaged on a Leica SP8 far higher resolution images.

DBA/2J (D2) mice [4] = experiment: Pattern electroretinography (PERG) in D2 mice; type: in vivo, mouse; conditions: for visual function, PERG amplitude: D2 mice
Method: PERG was recorded subcutaneously from the snout as previously reported. Briefly: patterned stimuli (gratings of 0.05 cycles/degree, 100% contrast) generated on LED panels were presented at each eye separately with slight different frequencies around 1 Hz. Waveforms were retrieved using an asynchronous averaging method (Chou et al., Invest Ophthalmol Vis Sci 55, 2469-2475, 2014).
Mice were anaesthetized using ketamine/xylazine (Savinova et al., BMC Genet 2, 12, 2001) and body temperature maintained at 37° C. on a feedback-controlled heated stage monitored by rectal thermometer.

DBA/2J (D2) mice [5] = experiment: Optic nerve assessment (PPD staining) and determination of glaucomatous damage in D2 mice; type: in vivo, mouse; conditions: for risk factor of developing glaucoma (nerves with severe glaucoma): D2 mice at 12 months, control 0.6
Text: This diet has no effects on the ocular health of the mice.
PPD stains the myelin sheath of all axons but darkly stains the axoplasm of only damaged axons.
Briefly, intracranial portions of optic nerves were fixed in 4% PFA at RT for 48 hrs, processed and embedded in plastic. A segment of optic nerve from within a region up to 1 mm from the posterior surface of the sclera was sectioned (1 μm thick sections) and stained with PPD. Typically 30-50 sections are taken from each nerve.
Multiple sections of each nerve were considered when determining damage level. Optic nerves were analyzed and determined to have one of 3 damage levels: • (1) No or early damage (NOE) less than 5% axons damaged and no gliosis. This level of damage is seen in age and sex matched non-glaucomatous mice and is not due to glaucoma.

C57BL/6J (B6) mice = experiment: Soluble murine TNFα intravitreal injection model of RGC death; type: in vivo, mouse; conditions: NAM 550 mg/kg/day, 12-week post-TNFα administration
Method: To induce delayed retinal ganglion cell degeneration, soluble murine TNFα (1 ng/μL) was intravitrally injected as previously described (Nakazawa et al., J Neurosci 26, 12633-12641, 2006). […] Mice we sacrificed at 12-week and RGC counts performed.

PARP = PARP activation (pan-PARP immunostaining) in D2 retinas; type: in vivo, mouse; conditions: NAM 550 mg/kg/day
Method: as §1, §2, §3

D2 retinas [6] = experiment: Retinal NFL and IPL thinning (Nissl staining) in D2 mice; type: in vivo, mouse; conditions: NAM or pyruvate in drinking water
Method: For Nissl staining, frozen sections were warmed to room temperature, placed in 1:1 alcohol:chloroform ON, and rehydrated through serial alcohol gradient. Slides were washed once in distilled water and stained for 15 mins in 0.1% cresyl violet in distilled water before being differentiated in 95% alcohol, dehydrated in 100% alcohol and cleared in xylene. Slides were prepared as above. Nissl stained retinal sections were imaged using a Nikon Eclipse E200.

D2 retinas [7] = experiment: Lipid droplet formation in inner retina (Oil Red O staining); type: in vivo, mouse; conditions: D2 mice, 12-month, NAM 550 mg/kg/day
Method: For Oil Red O staining, slides were warmed to room temperature, washed quickly in 60% isopropanol, incubated at RT in Oil Red O and Haematoxylin for 15 mins, washed in 60% isopropanol again, mounted and coverslipped. Oil Red O stained retinal sections were imaged using a Nikon Eclipse […].

**Q.** With `NC(=O)c1cccnc1` [NAM, nicotinamide] as the compound, how does the “axon degeneration in RGCs after intravitreal injection” value (RGCs) read?
**A.** not protective against axon degeneration in RGCs; also recorded: did not show any difference from the control animals

**Q.** What about the IOP (DBA/2J (D2) mice [1]; NAM 550 mg/kg/d) of the same compound?
**A.** did not alter IOP; also recorded: IOP was not altered

**Q.** And the “degree of IOP elevation” value (DBA/2J (D2) mice [1]; NAM 2000 mg/kg/d)?
**A.** lessens the degree of IOP elevation

**Q.** And the “mitochondrial dysfunction / abnormal cristae in dendritic mitochondria (EM)” value [2]?
**A.** sufficient to inhibit the formation of dysfunctional mitochondria; also recorded: prevents early mitochondrial dysfunction

**Q.** What about the “axonal degeneration after axotomy” value (dorsal root ganglion) of the same compound?
**A.** did not work to diminish axonal degeneration

**Q.** What about the “NAD(t) levels in retina” value (D2 retinas [3]; D2 Wld^S mice treated with NAM 550 mg/kg/day) of the same compound?
**A.** synergistic; also recorded: additional benefit

**Q.** What about the “NAD(t) levels in retina” value (D2 retinas [3]; D2 mice, NAM 550 mg/kg/day in drinking water, through to 12-month) of the same compound?
**A.** prevented the decline of NAD levels; also recorded: restored; also recorded: increased

**Q.** And the “DNA damage (γH2AX staining)” value (γH2AX)?
**A.** limited levels of DNA damage; also recorded: prevents DNA damage

**Q.** What about the PERG amplitude (DBA/2J (D2) mice [4]; D2 Wld^S mice, NAM 550 mg/kg/day) of the same compound?
**A.** additional recovery of PERG amplitude

**Q.** And the “visual function, PERG amplitude” value (DBA/2J (D2) mice [4]; NAM^Hi 2,000 mg/kg/day)?
**A.** protect

**Q.** And the “visual function, PERG amplitude” value (DBA/2J (D2) mice [4]; NAM^Lo 550 mg/kg/day or pyruvate 500 mg/kg/day)?
**A.** restored; also recorded: protect PERG even in aged mice

**Q.** What about the “risk factor of developing glaucoma (nerves with severe glaucoma)” value (DBA/2J (D2) mice [5]; high dose NAM 2,000 mg/kg/day) of the same compound?
**A.** 0.06

**Q.** And the “risk factor of developing glaucoma (nerves with severe glaucoma)” value (DBA/2J (D2) mice [5]; low dose NAM 550 mg/kg/day)?
**A.** 0.36

**Q.** And the “protection against glaucoma compared to Wld^S alone” value (DBA/2J (D2) mice [5]; D2 mice bearing the Wld^S mutation, NAM 550 mg/kg/day)?
**A.** better protects against glaucoma than Wld^S alone; also recorded: significantly better than Wld^S alone

**Q.** And the “protection from glaucomatous damage (no glaucoma)” value (DBA/2J (D2) mice [5]; D2 mice carrying the Wld^S mutation, NAM 550 mg/kg/day from 6 months)?
**A.** ~95%

**Q.** What about the “treated eyes having no glaucomatous optic nerve damage” value (DBA/2J (D2) mice [5]; D2 mice, NAM 2000 mg/kg/d (NAM^Hi), 12 months of age) of the same compound?
**A.** 93%

**Q.** What about the protective in glaucoma (DBA/2J (D2) mice [5]; D2 mice, NAM alone (550 mg/kg/day)) of the same compound?
**A.** about 70%

**Q.** What about the “decrease in risk factor of developing glaucoma” value (DBA/2J (D2) mice [5]; D2 mice, high dose NAM 2,000 mg/kg/day) of the same compound?
**A.** 10 fold

**Q.** And the “drop in risk factor” value (DBA/2J (D2) mice [5]; D2 mice, low dose NAM 550 mg/kg/day)?
**A.** ~2 fold

**Q.** And the “loss of PERG amplitude in TNFα injected eyes” value (C57BL/6J (B6) mice)?
**A.** protected against; also recorded: prevents

**Q.** What about the “soma loss / cell loss in TNFα injected eyes” value (C57BL/6J (B6) mice) of the same compound?
**A.** protected against; also recorded: prevents

**Q.** And the “PARP activation / expression” value (PARP)?
**A.** decreased PARP activation; also recorded: prevents PARP activation

**Q.** What about the “retinal NFL and IPL thinning (Nissl)” value (D2 retinas [6]) of the same compound?
**A.** prevented; also recorded: protects

**Q.** And the “lipid droplet formation in the inner retina” value (D2 retinas [7])?
**A.** prevented; also recorded: prevents lipid droplet formation
